Laboratory results from publication PMC11259170, “Small-molecule probe for IBD risk variant GPR65 I231L alters cytokine signaling networks through positive allosteric modulation” (Science Advances, 2024).
Read-outs that look alike come from different tables or passages of the source.

Key:
hGPR65 = molecular target: T1, hGPR65 (Homo sapiens, UniProt Q8IYL9); experiment: cAMP detection in HeLa expression cell line, hGPR65; type: cell-based; conditions: for EC50 / Emax: NA = no activity; for Emax: HeLa, relative to 100uM forskolin (100%) and DMSO (0%), read-out: hGPR Max Activity %
T1 construct: expressed in transfected cells; host or cells: HeLa (ATCC CCL-2), lentiviral transduction, pLX317
T1 sequence (Q8IYL9 whole entry): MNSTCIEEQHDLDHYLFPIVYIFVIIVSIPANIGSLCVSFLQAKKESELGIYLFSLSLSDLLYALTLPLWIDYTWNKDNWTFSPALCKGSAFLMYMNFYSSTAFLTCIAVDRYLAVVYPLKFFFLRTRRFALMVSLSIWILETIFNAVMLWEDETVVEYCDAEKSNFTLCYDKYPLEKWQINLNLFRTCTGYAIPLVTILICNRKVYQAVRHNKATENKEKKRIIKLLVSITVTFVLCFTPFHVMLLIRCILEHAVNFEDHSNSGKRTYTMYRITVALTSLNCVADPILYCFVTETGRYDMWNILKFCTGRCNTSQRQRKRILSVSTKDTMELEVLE
Description: (§1) HeLa stable expression cell lines were produced by lentiviral transduction. Briefly, lentiviral plasmids for each GPCR with a C-terminal V5 Tag ([…]) were made in a pLX317 backbone using competent Escherichia coli (New England Biolabs, C3050H). Lenti-X 293 T (Takara, 632810) cells were transfected with the lentiviral plasmids to produce virus. Low-passage HeLa cells (American Type Culture Collection, CCL-2) were then transduced with lentivirus. After 48 hours, HeLa cells were cultured under selection with puromycin (3 μg/ml) and allowed to recover and expand before storing stocks in liquid nitrogen.
(§2) cAMP was measured in cells using the Lance Ultra cAMP Kit. HeLa cells were cultured under puromycin (3 μg/ml) selection. One day before the experiment, cells were seeded in T75 flasks and allowed to adhere overnight. On the day of the experiment, cells were washed twice with Dulbecco’s PBS and lifted using prewarmed 1× versene solution (Gibco, 15040066). Cells were counted in HBSS (Gibco, 14025092) and then resuspended in stimulation buffer prepared according to the manufacturer’s instructions and adjusted to pH 7.2 using 1 M sodium hydroxide. Cells were added to the plate at a density of 1500 cells per well in white opaque 384-well assay ready microplates containing 100 nl of 10 mM compound in DMSO. Cells were stimulated for 30 min at RT, then lysed and incubated with detection reagents for 1 hour in the dark at RT. Plates were read on BMG Labtech PHERAstar FSX (excitation, 337 nm; emission, 620 and 665 nm). Data analysis was performed using GraphPad Prism.

mGPR65 = molecular target: T2, mGPR65 (Mus musculus, UniProt Q61038); experiment: cAMP detection in HeLa expression cell line, mGPR65; type: cell-based; conditions: for EC50 / Emax: NA = no activity; for Emax: HeLa, relative to 100uM forskolin (100%) and DMSO (0%), read-out: mGPR Max Activity %
T2 construct: expressed in transfected cells; host or cells: HeLa (ATCC CCL-2), lentiviral transduction, pLX317
T2 sequence (Q61038 whole entry): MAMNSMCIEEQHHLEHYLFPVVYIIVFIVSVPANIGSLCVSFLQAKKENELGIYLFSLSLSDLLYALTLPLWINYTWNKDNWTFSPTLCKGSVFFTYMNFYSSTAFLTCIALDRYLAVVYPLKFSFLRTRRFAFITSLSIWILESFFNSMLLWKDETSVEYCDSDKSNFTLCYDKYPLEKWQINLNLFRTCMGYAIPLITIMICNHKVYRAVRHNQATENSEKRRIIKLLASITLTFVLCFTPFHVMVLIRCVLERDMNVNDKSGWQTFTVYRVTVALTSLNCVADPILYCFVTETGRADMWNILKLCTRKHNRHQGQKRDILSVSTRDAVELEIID
Description: as §1, §2

[1] = test system: GFP-expressing HeLa cells; experiment: cAMP detection in HeLa expression cell line, GFP control; type: cell-based, human; conditions: Homo sapiens, HeLa, NA = no activity; for Emax: relative to 100uM forskolin (100%) and DMSO (0%), read-out: GFP Max Activity %
Description: as §1, §2

[2] = 1st hGPR column pair, read-out: hGPR EC50
[3] = 2nd hGPR column pair, read-out: hGPR EC50
[4] = 1st mGPR column pair, read-out: mGPR EC50
[5] = 2nd mGPR column pair, read-out: mGPR EC50

Structure (SMILES) | EC50 (hGPR65; [2]) [nM] | EC50 (hGPR65; [3]) [nM] | Emax (hGPR65; 1st hGPR column pair) [%] | Emax (hGPR65; 2nd hGPR column pair) [%] | EC50 (mGPR65; [4]) [µM] | EC50 (mGPR65; [5]) [µM] | Emax (mGPR65; 2nd mGPR column pair) [%] | Emax (mGPR65) [%] | EC50 ([1]; 2nd GFP column pair) [nM] | Emax ([1]; 2nd GFP column pair) [%] | EC50 ([1]; 1st GFP column pair) [nM] | Emax ([1]; 1st GFP column pair) [%] | EC50 (hGPR65; hGPR EC50) [nM] | EC50 (mGPR65; mGPR EC50 (uM), 2nd mGPR column pair) [µM] | EC50 (mGPR65; mGPR EC50 (uM)) [µM] | cAMP production relative to BRD2813, hGPR65 (hGPR65; pH 7.2) | cAMP production relative to BRD2813, mGPR65 (mGPR65; pH 7.2)
Cc1ccc(NC(=O)c2cnn3c(O)cc(-c4ccc(N5CCOCC5)cc4)nc23)cc1 [BRD4390] | 703 | 265 | 73.5 | 76.8 | 0.403 | 1.07 | 26.8 | 26.6 | 11700 | 2.2 |  |  |  |  |  |  | 
CC(C)OCc1ccc(-c2cc(O)n3ncc(C(=O)Nc4ccccc4)c3n2)cc1 [BRD5060] | 3720 | 10800 | 94.5 | 109 | 2.07 | 1.62 | 48.6 | 64.4 | 78100 | 2.12 | 47000 | 5.52 |  |  |  |  | 
Cc1ccc(NC(=O)c2cnn3c(O)cc(-c4ccc(N5CCOCC5)c(Cl)c4)nc23)cc1 [BRD5062] | 1070 | 851 | 74.5 | 71.6 | 0.46 | 0.284 | 55.1 | 50.8 | 11400 | 1.01 | 24700 | 3.17 |  |  |  |  | 
CCOCc1ccc(-c2cc(O)n3ncc(C(=O)Nc4ccccc4)c3n2)cc1 [BRD5063] | 4060 | 5840 | 76.1 | 66.6 | 5.47 | 2.73 | 38 | 52.1 | 190 | 1.85 |  |  |  |  |  |  | 
COc1cc(-c2cc(O)n3ncc(C(=O)Nc4ccc(C)cc4)c3n2)ccc1F [BRD5066] | 1470 | 1840 | 67 | 70.4 | 1.15 | 0.781 | 29.4 | 31.3 | 6080 | 1.99 |  |  |  |  |  |  | 
Cc1ccc(NC(=O)c2cnn3c(O)cc(-c4cnc(N5CCN(C)CC5)c(Cl)c4)nc23)cc1 [BRD5069] |  |  |  | 1.75 |  |  | 42.5 | 63.3 |  |  | 1570 | 2.17 | 6240 | 5.03 | 0.65 |  | 
Cc1ccc(NC(=O)c2cnn3c(O)cc(-c4ccc(N5CCN(C)CC5)nc4)nc23)cc1 [BRD5070] | 1310 | 68.7 | 13.4 | 4.57 | 1.35 | 2.15 | 34.4 | 38.5 | 421 | 2.13 | 3200 | 2.48 |  |  |  |  | 
Cc1ccc(NC(=O)c2cnn3c(O)cc(-c4ccc(COC(C)C)cc4)nc23)cn1 [BRD5071] | 991 | 1890 | 74.2 | 60.4 | 1.54 | 1.61 | 61.2 | 60.5 |  |  | 24900 | 8.1 |  |  |  |  | 
Cc1ncc(NC(=O)c2cnn3c(O)cc(-c4ccc(COC(C)C)cc4)nc23)cn1 [BRD5072] | 8180 | 6930 | 59.1 | 48.2 | 4.79 | 5.04 | 49 | 51.1 | 376 | 1.42 | 6880 | 3.5 |  |  |  |  | 
Cc1cnc(NC(=O)c2cnn3c(O)cc(-c4ccc(COC(C)C)cc4)nc23)cn1 [BRD5073] | 2160 | 3050 | 73.6 | 65.1 | 2.27 | 2.78 | 59.1 | 71 | 3530 | 2.17 |  |  |  |  |  |  | 
CC(C)OCc1ccc(-c2cc(O)n3ncc(C(=O)Nc4cccnc4)c3n2)cc1 [BRD5077] | 5550 | 8260 | 57.8 | 70.1 | 2.51 | 2.72 | 62.4 | 70 | 1620 | 3.65 |  |  |  |  |  |  | 
Cc1ccc(NC(=O)c2cnn3c(O)cc(-c4ccc(COC(C)C)cc4)nc23)c(Cl)c1 [BRD5081] | 4260 | 7630 | 80.6 | 63.4 | 1.01 | 1.14 | 60.4 | 66.3 |  |  | 1620 | 2.48 |  |  |  |  | 
Cc1ccc(NC(=O)c2cnn3c(O)cc(-c4ccc(C(N)=O)cc4)nc23)cc1 [BRD5082] |  |  | 0 |  |  |  |  | 4.93 | 17900 | 7.17 | 38500 | 14.2 |  |  | 12.3 | eliminated all cAMP activity | eliminated all cAMP activity
CNC(=O)c1ccc(-c2cc(O)n3ncc(C(=O)Nc4ccc(C)cc4)c3n2)cc1 [BRD5083] | 26200 |  | 75.2 |  |  | 99.6 | 106 |  | 6270 | 1.9 |  |  |  |  |  |  | 
Cc1ccc(NC(=O)c2cnn3c(O)cc(-c4ccc(C(=O)N(C)C)cc4)nc23)cc1 [BRD5084] | 2000 | 1230 | 39.1 | 40.2 | 2.98 | 1.63 | 31.2 | 32.1 | 33600 | 7.64 | 11500 | 5.15 |  |  |  |  | 
Cc1ccc(NC(=O)c2cnn3c(O)cc(-c4ccc(C(F)(F)F)cc4)nc23)cc1 [BRD5668] | 114 | 587 | 77 | 70.8 | 3.49 | 6.28 | -22.2 | -22.7 | 183 | 1.82 |  |  |  |  |  |  | 
